The values below come from PMC10619135, “Virtual screening, identification and in vitro validation of small molecule GDP-mannose dehydrogenase inhibitors” (RSC Chemical Biology, 2023).

The target of assay [1] is T1, GDP-mannose dehydrogenase (GMD) (Pseudomonas aeruginosa, UniProt P11759).
T1 construct: gene algD; recombinant GMD
The assay is described as follows: NADH fluorescence assay, dilution series. It is filed as biochemical.

In assay [2] the target is T1, GDP-mannose dehydrogenase (GMD). The assay is described as follows: intact protein ESI-MS. Type of assay: binding. The settings on record: covalent; overnight incubation; single adduct; site Lys324 only predicted by docking.

T1 sequence (P11759 whole entry): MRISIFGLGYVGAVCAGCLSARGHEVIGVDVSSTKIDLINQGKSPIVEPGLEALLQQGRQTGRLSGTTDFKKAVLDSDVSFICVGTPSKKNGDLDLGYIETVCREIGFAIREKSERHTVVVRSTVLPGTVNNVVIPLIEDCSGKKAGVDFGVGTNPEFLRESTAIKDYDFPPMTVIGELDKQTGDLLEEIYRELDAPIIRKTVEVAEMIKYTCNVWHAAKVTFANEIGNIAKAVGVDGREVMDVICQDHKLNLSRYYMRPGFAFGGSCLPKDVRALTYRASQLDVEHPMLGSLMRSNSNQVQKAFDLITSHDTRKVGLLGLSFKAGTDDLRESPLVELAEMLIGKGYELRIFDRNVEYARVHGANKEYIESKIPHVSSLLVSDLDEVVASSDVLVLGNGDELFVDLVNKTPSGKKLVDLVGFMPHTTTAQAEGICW

The compound `CC(=O)C1=C(O)C=C2Oc3c4c(c(C)c(O)c3[C@@]2(C)C1=O)O/C(=C\c1ccc(O)cc1)C4=O` [compound 13, 13] had a half-inhibitory concentration (IC50) in assay [1] of 16.7 ± 2.12 µM. The “intact protein ESI-MS” value in assay [2] is “ESI-MS indicated clear evidence of a single GMD-13 adduct”.
